Measurements published in PubChem BioAssay (NCI).
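Step 1: Grow cells in 96-well plates. Step 2: Expose to compound for 48 hours at 5 concentrations. Step 3: Interpolate endpoints linearly; if unreached, use highest concentration. Abbreviation: GI50, concentration required for 50% inhibition of growth. The concentration for full growth arrest is given as TGI.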

Assays:
Test in all cases: inhibition of tumour cell growth, NCI panel, 48 h
M14 melanoma = system: M14 melanoma
UACC-62 melanoma = system: UACC-62 melanoma
SR leukemia = system: SR leukemia
HCT-116 colon = system: HCT-116 colon
HT29 colon = system: HT29 colon
MDA-MB-435 = system: MDA-MB-435
DU-145 prostate = system: DU-145 prostate
COLO 205 colon = system: COLO 205 colon
KM12 colon = system: KM12 colon
SNB-75 CNS = system: SNB-75 CNS

Compound | TGI (M14 melanoma) [µM] | TGI (UACC-62 melanoma) [µM] | TGI (SR leukemia) [µM] | TGI (HCT-116 colon) [µM] | TGI (HT29 colon) [µM] | TGI (MDA-MB-435) [µM] | TGI (DU-145 prostate) [µM] | TGI (COLO 205 colon) [µM] | TGI (KM12 colon) [µM] | TGI (SNB-75 CNS) [µM] | GI50 (M14 melanoma) [µM] | GI50 (UACC-62 melanoma) [µM] | GI50 (SR leukemia) [µM] | GI50 (HCT-116 colon) [µM] | GI50 (HT29 colon) [µM] | GI50 (MDA-MB-435) [µM] | GI50 (DU-145 prostate) [µM] | GI50 (COLO 205 colon) [µM] | GI50 (KM12 colon) [µM] | GI50 (SNB-75 CNS) [µM]
O=C1/C(=C/c2ccc(Cl)cc2)CCC1CN1CCOCC1 (stereo not drawn) | 19.4 | 15.8 | 5.29 | 17.8 | 23 | 14.3 | 16.1 | > 25.3 | 10.4 | 37.9 | – | – | – | – | – | – | – | – | – | –
Cc1ccc2nc3c(n2c1)C(=O)C(=O)c1ccccc1-3 | 0.34 | 0.324 | 3.33 | 1.09 | – | 0.137 | 1.12 | 3.76 | 8.28 | 0.618 | 0.183 | 0.152 | 0.264 | 0.188 | 1.74 | 0.0661 | 0.288 | 1.91 | 0.574 | 0.266
CNC(=O)c1cc(Oc2ccc3nc(N[C@@H]4CCCC[C@H]4O)sc3c2)ccn1 | > 100 | > 100 | > 100 | > 100 | > 100 | > 100 | > 100 | > 100 | > 100 | > 100 | 36.7 | 49.9 | 40 | 49.1 | 97.8 | 32.6 | 71.8 | 59.8 | 66.3 | 31.3
Clc1ccc2nc(Cl)c3ccccc3c2c1 | > 100 | > 100 | > 100 | 22.1 | > 100 | > 100 | > 100 | > 100 | > 100 | 8.16 | > 100 | 44.1 | 22 | 4.34 | 19.9 | 23.6 | 58.5 | 46.8 | 15.4 | 2.09
Cc1ccc(-c2cc(-c3ccc(C)cc3)nc(N3CCN(CCNc4ccnc5cc(Cl)ccc45)CC3)n2)cc1 | 8.45 | 12.6 | > 50 | 6.91 | 7.26 | 6.85 | 8.5 | 8.76 | 39.2 | 2.23 | 1.9 | 5.54 | 0.675 | 1.66 | 1.51 | 1.76 | 2.06 | 1.71 | 5.7 | 0.949
O=c1c2c(=NCCN3CCCC3)cc3c(=O)n(CCCN4CCOCC4)c(=O)c4ccc(c(O)n1CCCN1CCOCC1)c2c4-3 | 1.19 | 0.966 | 5.37 | 1.09 | 1.04 | 0.264 | 1.67 | 0.423 | 1.22 | 1.46 | 0.323 | 0.35 | < 0.0201 | < 0.0174 | < 0.0181 | 0.122 | 0.088 | 0.165 | 0.131 | 0.234
CN(C)c1ccc(Nc2c3ccccc3nc3cc(NC(=O)CCN4CCCC4)ccc23)cc1 | 2 | 2.11 | 1.24 | 1.61 | 2.06 | 2.49 | 1.19 | 1.76 | 1.88 | 1.72 | 0.692 | 0.774 | 0.0421 | 0.346 | 0.475 | 1.22 | 0.155 | 0.309 | 0.497 | 0.381
CCSc1ccc([C@@H]2[C@@H](N)C(=O)N2c2cc(OC)c(OC)c(OC)c2)cc1 | > 100 | > 100 | > 100 | > 100 | 18 | 0.102 | > 100 | 11.7 | > 100 | > 100 | 0.0456 | 0.0451 | 0.0449 | 0.0448 | 0.0333 | 0.0277 | 0.188 | 0.0513 | 0.0533 | 0.0375
Oc1ccc2ccccc2c1N=Nc1ccc(Cl)cc1 | > 100 | > 100 | > 100 | > 100 | > 100 | > 100 | > 100 | > 100 | > 100 | > 100 | – | – | – | – | – | – | – | – | – | –
O=C1/C(=C/c2ccc(Cl)cc2)CN(C(=O)CCN2CCC(=NO)CC2)C/C1=C\c1ccc(Cl)cc1 | 2.3 | 1.72 | – | 0.654 | 1.31 | 1.76 | 2.6 | 1.32 | 0.935 | 2.61 | 0.754 | 0.585 | 0.114 | 0.245 | 0.338 | 0.631 | 1.28 | 0.345 | 0.388 | 1.31
Fc1ccc([C@@H]2CCNC[C@H]2COc2ccc3c(c2)OCO3)cc1 | 11.1 | 18.8 | 5.34 | 21.8 | 13.9 | 7.96 | 26.5 | 3.69 | 14.1 | 7.61 | 2.93 | 5.52 | 2.02 | 6.07 | 3.52 | 2.31 | 13.1 | 1.91 | 3.86 | 1.32
COc1ccc(-c2nnc(SCC(=O)Nc3ccc(C(=O)/C=C/c4cc(OC)c(OC)c(OC)c4)cc3)n2-c2ccccc2)cc1OC | > 10 | > 10 | > 10 | > 10 | > 10 | 9.91 | > 10 | > 10 | > 10 | > 10 | 3.33 | 6.4 | 0.666 | 0.433 | 2.07 | 1.77 | 3.86 | > 10 | 2.38 | > 10
O=C(Nc1ccc(Oc2ccc(NC(=O)Nc3ccc([N+](=O)[O-])cc3)cc2)cc1)Nc1ccc([N+](=O)[O-])cc1 | 11.7 | 11.1 | 4.87 | 9.19 | 15.9 | 8.65 | > 100 | 3.22 | > 29.7 | > 100 | 2.37 | 1.36 | 1.35 | 1.17 | 2 | 2.16 | 2.44 | 1.63 | 1.53 | 2.78
